In brackets after ≈: the same amount, converted by molar mass.
Tests used:
Candida albicans [1] = assay: Antifungal activity against Candida albicans SC5314 assessed as reduction in fungal growth incubated for 24 hrs by serial dilution method; format: functional
[2] = test system: Mycobacterium tuberculosis; assay: Antimycobacterial activity against Mycobacterium tuberculosis H37Ra assessed as reduction in bacterial growth by MABA method; format: functional
KB [3] = assay: Cytotoxicity against human KB cells assessed as reduction in cell viability by colorimetric assay; format: functional, cell-based
Breast carcinoma cell = assay: Cytotoxicity against human Breast carcinoma cell assessed as reduction in cell viability by colorimetric assay; format: functional, cell-based
NCI-H187 [4] = assay: Cytotoxicity against human NCI-H187 cells assessed as reduction in cell viability by colorimetric assay; format: functional, cell-based
Plasmodium falciparum [5] = assay: Antiplasmodial activity against Plasmodium falciparum K1 assessed as reduction in parasitic growth by fluorescence based analysis; format: functional, organism-based
Plasmodium falciparum [6] = assay: Antiplasmodial activity against Plasmodium falciparum W2 assessed as reduction in plasmodial growth after 48 hrs by fluorescence based analysis; format: functional, organism-based; settings: W2, 48 h
Staphylococcus aureus [7] = assay: Antibacterial activity against methicillin-resistant Staphylococcus aureus ATCC 4330 assessed as bacterial growth inhibition; format: functional
Staphylococcus aureus [8] = assay: Antibacterial activity against Staphylococcus aureus ATCC 25923 assessed as bacterial growth inhibition by broth dilution method; format: functional, organism-based
Staphylococcus aureus [9] = assay: Antibacterial activity against methicillin-resistant Staphylococcus aureus ATCC 25923 assessed as bacterial growth inhibition by broth dilution method; format: functional, organism-based
Candida albicans [10] = assay: Antifungal activity against Candida albicans ATCC 10231 assessed as reduction in fungal growth by NCCLS method; format: functional
Candida albicans [11] = assay: Antifungal activity against multidrug-resistant Candida albicans ATCC 10231 assessed as reduction in fungal growth by NCCLS method; format: functional
KB [12] = assay: Cytotoxicity against human KB cells assessed as reduction in cell viability by resazurin microplate assay; format: functional, cell-based
MCF7 = assay: Cytotoxicity against human MCF7 cells assessed as reduction in cell viability by resazurin microplate assay; format: functional, cell-based
NCI-H187 [13] = assay: Cytotoxicity against human NCI-H187 cells assessed as reduction in cell viability by resazurin microplate assay; format: functional, cell-based
Maltase-glucoamylase = Maltase-glucoamylase (Homo sapiens, UniProt O43451); assay: Inhibition of human Alpha-glucosidase
Sequence of Maltase-glucoamylase (O43451 whole entry): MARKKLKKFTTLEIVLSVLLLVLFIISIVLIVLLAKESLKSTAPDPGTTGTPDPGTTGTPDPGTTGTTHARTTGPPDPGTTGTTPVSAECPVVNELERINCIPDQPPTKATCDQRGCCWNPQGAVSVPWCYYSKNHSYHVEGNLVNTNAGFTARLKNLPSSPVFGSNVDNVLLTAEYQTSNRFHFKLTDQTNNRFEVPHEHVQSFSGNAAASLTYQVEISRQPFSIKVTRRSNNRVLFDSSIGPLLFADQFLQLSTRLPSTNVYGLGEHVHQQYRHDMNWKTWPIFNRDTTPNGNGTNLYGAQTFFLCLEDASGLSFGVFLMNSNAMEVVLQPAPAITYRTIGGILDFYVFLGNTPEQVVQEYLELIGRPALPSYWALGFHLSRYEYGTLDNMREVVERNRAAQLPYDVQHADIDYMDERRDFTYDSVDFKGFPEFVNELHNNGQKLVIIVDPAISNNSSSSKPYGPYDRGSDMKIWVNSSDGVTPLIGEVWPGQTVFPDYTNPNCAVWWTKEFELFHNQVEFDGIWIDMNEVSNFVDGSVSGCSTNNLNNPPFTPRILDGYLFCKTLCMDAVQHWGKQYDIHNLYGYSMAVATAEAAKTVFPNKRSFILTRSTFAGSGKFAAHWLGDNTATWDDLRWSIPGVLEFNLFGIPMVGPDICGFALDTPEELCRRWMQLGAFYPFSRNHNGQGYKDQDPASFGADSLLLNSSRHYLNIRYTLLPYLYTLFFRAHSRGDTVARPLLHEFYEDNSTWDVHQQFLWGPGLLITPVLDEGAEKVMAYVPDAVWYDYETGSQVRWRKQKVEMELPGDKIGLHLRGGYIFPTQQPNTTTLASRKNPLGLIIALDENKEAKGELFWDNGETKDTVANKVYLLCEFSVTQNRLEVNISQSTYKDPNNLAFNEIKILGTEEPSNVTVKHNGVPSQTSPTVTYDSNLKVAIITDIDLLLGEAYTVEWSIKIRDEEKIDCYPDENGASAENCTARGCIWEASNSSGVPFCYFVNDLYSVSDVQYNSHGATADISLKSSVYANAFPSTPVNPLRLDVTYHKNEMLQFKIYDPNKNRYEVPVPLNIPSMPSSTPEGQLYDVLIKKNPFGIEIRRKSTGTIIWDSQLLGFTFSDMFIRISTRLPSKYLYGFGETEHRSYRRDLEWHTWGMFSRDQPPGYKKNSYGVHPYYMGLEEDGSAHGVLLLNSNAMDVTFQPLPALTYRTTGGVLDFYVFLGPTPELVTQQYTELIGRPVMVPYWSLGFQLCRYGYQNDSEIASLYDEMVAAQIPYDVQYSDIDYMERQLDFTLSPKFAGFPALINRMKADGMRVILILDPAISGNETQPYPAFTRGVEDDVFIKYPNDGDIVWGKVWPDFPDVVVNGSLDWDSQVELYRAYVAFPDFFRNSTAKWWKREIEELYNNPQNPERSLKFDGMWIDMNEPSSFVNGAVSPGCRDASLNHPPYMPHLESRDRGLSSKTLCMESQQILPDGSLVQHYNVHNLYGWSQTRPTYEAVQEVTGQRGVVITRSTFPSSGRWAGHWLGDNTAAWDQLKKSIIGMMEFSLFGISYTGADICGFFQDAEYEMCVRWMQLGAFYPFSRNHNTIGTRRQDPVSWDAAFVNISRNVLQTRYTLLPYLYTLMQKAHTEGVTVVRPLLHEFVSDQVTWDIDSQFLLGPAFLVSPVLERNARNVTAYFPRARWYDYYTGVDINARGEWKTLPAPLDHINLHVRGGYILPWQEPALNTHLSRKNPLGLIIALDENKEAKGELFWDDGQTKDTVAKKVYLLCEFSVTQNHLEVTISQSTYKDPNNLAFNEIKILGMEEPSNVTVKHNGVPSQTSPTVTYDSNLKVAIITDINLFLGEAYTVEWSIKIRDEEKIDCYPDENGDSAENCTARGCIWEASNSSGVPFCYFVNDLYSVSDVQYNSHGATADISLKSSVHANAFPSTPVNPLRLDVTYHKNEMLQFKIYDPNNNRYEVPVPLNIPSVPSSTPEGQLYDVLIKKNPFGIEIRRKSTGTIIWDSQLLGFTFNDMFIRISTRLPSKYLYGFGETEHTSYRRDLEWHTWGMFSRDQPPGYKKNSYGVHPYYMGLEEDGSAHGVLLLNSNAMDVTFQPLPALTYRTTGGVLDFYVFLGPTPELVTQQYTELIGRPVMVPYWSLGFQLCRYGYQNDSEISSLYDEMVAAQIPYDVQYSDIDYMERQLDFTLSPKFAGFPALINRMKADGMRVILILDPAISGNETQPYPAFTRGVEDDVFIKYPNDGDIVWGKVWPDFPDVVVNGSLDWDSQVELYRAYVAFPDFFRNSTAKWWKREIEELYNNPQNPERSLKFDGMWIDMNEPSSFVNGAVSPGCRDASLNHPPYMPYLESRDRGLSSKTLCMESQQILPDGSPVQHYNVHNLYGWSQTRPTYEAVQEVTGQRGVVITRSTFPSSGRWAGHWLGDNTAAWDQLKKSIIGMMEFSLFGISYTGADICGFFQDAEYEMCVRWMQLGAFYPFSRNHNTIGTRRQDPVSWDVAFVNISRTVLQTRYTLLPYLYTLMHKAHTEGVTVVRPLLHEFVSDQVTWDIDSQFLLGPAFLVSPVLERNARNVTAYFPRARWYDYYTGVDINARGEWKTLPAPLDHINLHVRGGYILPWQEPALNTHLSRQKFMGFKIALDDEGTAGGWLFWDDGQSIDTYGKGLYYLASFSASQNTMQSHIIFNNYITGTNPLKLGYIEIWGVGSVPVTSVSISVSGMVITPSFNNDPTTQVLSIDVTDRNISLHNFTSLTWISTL

[14] = target: Sterol O-acyltransferase 2 (Homo sapiens) (UniProt O75908); assay: Inhibition of human ACAT2 at 100 uM
Sequence of Sterol O-acyltransferase 2 (Homo sapiens) (O75908 whole entry): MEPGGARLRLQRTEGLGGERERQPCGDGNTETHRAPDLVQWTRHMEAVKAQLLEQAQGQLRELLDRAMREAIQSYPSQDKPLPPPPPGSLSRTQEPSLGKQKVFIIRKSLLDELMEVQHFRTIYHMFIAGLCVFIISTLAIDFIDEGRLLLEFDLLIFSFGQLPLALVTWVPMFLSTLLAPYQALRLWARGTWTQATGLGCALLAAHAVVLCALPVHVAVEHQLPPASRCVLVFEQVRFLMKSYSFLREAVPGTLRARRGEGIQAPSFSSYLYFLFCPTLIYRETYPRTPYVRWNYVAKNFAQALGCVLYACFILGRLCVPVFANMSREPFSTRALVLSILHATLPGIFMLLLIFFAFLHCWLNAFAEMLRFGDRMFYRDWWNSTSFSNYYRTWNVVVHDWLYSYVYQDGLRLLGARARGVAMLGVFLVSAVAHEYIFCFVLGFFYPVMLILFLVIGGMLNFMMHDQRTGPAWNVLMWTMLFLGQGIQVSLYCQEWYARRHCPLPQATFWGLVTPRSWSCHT

[15] = target: Sterol O-acyltransferase 1 (Homo sapiens) (UniProt P35610); assay: Inhibition of human ACAT1 at 100 uM
Sequence of Sterol O-acyltransferase 1 (Homo sapiens) (P35610 whole entry, looked up): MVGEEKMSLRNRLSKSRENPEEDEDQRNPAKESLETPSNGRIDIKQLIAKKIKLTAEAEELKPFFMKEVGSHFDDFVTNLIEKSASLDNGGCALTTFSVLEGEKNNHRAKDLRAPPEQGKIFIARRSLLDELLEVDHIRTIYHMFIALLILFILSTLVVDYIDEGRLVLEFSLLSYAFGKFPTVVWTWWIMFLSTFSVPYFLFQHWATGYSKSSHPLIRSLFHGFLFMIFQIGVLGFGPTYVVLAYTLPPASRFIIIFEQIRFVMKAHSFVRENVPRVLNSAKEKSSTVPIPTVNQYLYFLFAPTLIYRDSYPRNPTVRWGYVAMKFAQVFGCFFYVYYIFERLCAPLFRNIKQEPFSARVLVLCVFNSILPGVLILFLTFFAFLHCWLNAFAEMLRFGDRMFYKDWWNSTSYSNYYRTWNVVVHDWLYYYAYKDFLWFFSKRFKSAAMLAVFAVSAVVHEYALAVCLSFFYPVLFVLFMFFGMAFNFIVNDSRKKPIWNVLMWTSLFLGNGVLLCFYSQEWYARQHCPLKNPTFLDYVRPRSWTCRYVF

Plasmodium falciparum [16] = assay: Antiplasmodial activity against Plasmodium falciparum K1 assessed as reduction in parasite growth by fluorescence based assay; format: functional, organism-based
[17] = test system: Mycobacterium tuberculosis; assay: Antimycobacterial activity against Mycobacterium tuberculosis H37Rv assessed as inhibition of bacterial growth by Microplate alamar blue assay; format: functional, organism-based
Enterococcus [18] = assay: Antibacterial activity against vancomycin-resistant Enterococcus GCMT1 assessed as reduction in bacterial growth incubated for 24 hrs by microbroth dilution method; format: functional
Enterococcus [19] = assay: Antibacterial activity against vancomycin-resistant Enterococcus GCMT3 assessed as reduction in bacterial growth incubated for 24 hrs by microbroth dilution method; format: functional
Streptococcus agalactiae = assay: Antibacterial activity against Streptococcus agalactiae ATCC 12386 assessed as reduction in bacterial growth by microbroth dilution method; format: functional

Oc1cc2c(cc1O)[C@@H]1Oc3cc4c(cc3[C@@H]1CO2)OCO4
MIC (Candida albicans [1]): 32 µg/mL (≈ 107 µM)

COc1c(CC=C(C)C)c(O)cc2c1[C@@H]1Oc3c(ccc(O)c3CC=C(C)C)[C@@H]1CO2
MIC [2]: 50 µg/mL (≈ 118 µM)

CC(C)=CCc1c(O)ccc2c1O[C@H]1c3ccc(O)cc3OC[C@@H]21 [PHASEOLLIDIN]
IC50 (KB [3]): 7.7 µg/mL (≈ 23.7 µM)
IC50 (Breast carcinoma cell): 14.3 µg/mL (≈ 44.1 µM)
IC50 (NCI-H187 [4]): 5.05 µg/mL (≈ 15.6 µM)
IC50 (Plasmodium falciparum [5]): 9.09 µg/mL (≈ 28 µM)
IC50 (Plasmodium falciparum [6]): 1.66 µg/mL (≈ 5.12 µM)

COc1ccc2c(c1CC=C(C)C)O[C@H]1c3ccc(O)c(CC=C(C)C)c3OC[C@@]21O
MIC50 (Staphylococcus aureus [7]): 6.25 µM (≈ 2.64 µg/mL)

COc1ccc2c(c1CC=C(C)C)O[C@H]1c3ccc(O)cc3OCC21 (some centres undefined)
IC50 (Staphylococcus aureus [8]): 8 µg/mL (≈ 23.6 µM)
IC50 (Staphylococcus aureus [9]): 16 µg/mL (≈ 47.3 µM)
IC50 (Plasmodium falciparum [6]): 1.83 µg/mL (≈ 5.41 µM)
MIC (Candida albicans [10]): 3.8 µg/mL (≈ 11.2 µM)
MIC (Candida albicans [11]): 1.9 µg/mL (≈ 5.61 µM)

COc1ccc2c(c1CC=C(C)C)OC1c3ccc(O)cc3OCC21 (centres undefined)
IC50 (Staphylococcus aureus [8]): 4 µg/mL (≈ 11.8 µM)
IC50 (Staphylococcus aureus [9]): 4 µg/mL (≈ 11.8 µM)
IC50 (KB [12]): 12.5 µg/mL (≈ 37 µM)
IC50 (MCF7): 7.51 µg/mL (≈ 22.2 µM)
IC50 (NCI-H187 [13]): 5.37 µg/mL (≈ 15.9 µM)

CC1(C)C=Cc2c(ccc3c2OC2c4ccc(O)cc4OCC32)O1 (centres undefined)
IC50 (Maltase-glucoamylase): 6 µM
inhibition [14]: 67.4%
inhibition [15]: 85.9%

CC(C)=CCc1c(O)ccc2c1O[C@H]1c3ccc(O)c(CC=C(C)C)c3OC[C@@H]21 [ERYBRAEDIN A]
IC50 (Plasmodium falciparum [16]): 3.4 µg/mL (≈ 8.66 µM)
IC50 [17]: 25 µg/mL (≈ 63.7 µM)
IC50 (KB [3]): 5.1 µg/mL (≈ 13 µM)
IC50 (Breast carcinoma cell): 2.9 µg/mL (≈ 7.39 µM)
IC50 (NCI-H187 [4]): 2.1 µg/mL (≈ 5.35 µM)
MIC (Enterococcus [18]): 1.56 µg/mL (≈ 3.97 µM)
MIC (Enterococcus [19]): 3.13 µg/mL (≈ 7.97 µM)
MIC (Streptococcus agalactiae): 0.78 µg/mL (≈ 1.99 µM)

Source: ChEMBL document CHEMBL5260799, “Pterocarpan scaffold: A natural lead molecule with diverse pharmacological properties” (Eur J Med Chem, 2017)
